Assay results taken from article PMC11876671, “Investigating blood–brain barrier penetration and neurotoxicity of natural products for central nervous system drug development” (Scientific Reports, 2025).
Where two headings read alike, the source gives them in different places.

Assays:
[1] = in vitro; conditions: PAMPA, PAMPA-BBB Pe
[2] = tested on: GFP-labeled iPSC-derived human cortical glutamatergic neurons; conditions: for effect on number of objects: in words; for AC50: read-out: Viability AC50 (48hr)
[3] = tested on: GFP-labeled iPSC-derived human cortical glutamatergic neurons; assay: cells; type: cell-based; conditions: for inhibition of cortical neurite outgrowth (total neurite length): 24 and 48 h treatment, in words
[4] = tested on: GFP-labeled iPSC-derived human cortical glutamatergic neurons; assay: cells; conditions: Neuron, 48 h
[5] = tested on: glioblastoma multiforme (GBM); conditions: mouse, in vivo, ip; cited from earlier work
[6] = tested on: human glial and neuroblastoma cell lines; conditions: malignant glioma tumor cells; cited from earlier work
[7] = tested on: offspring neurogenesis; conditions: rat, in vivo, po; cited from earlier work
[8] = Table 1, 60 min, room temperature, 0.05 mM
[9] = Table S2: compounds exhibiting moderate to high PAMPA-BBB permeability
[10] = Table S1, 60 min, room temperature, 0.05 mM
[11] = Homo sapiens, Neuron, rounded values, read-out: AC50 (neurite outgrowth inhibition)
[12] = Homo sapiens, Neuron, total neurite length, 48 h treatment, read-out: TNL AC50 (48 h)
[13] = read-out: Viability AC50 (48 h)
[14] = Homo sapiens, Neuron, Table S1, total neurite length, 48 hr, head prints no unit, µM per Table 1 and Fig. 5, read-out: TNL AC50 (48 hr)
[15] = read-out: Viability AC50 (48hr)

Row | Molecule | PAMPA-BBB Pe [8] | PAMPA-BBB Pe [9] | Papp [1, 10] | AC50 [3, 12] | AC50 [4, 13] | AC50 [3, 14] | AC50 [4, 15] | other results
1 | O=c1oc2c(O)c(O)cc3c(=O)oc4c(O)c(O)cc1c4c23 [Ellagic acid] | 119.5 10 × 10^− 6 cm/sec | 120 10^-6 cm/sec | 120 ×10⁻⁶ cm/s | 3.05 µM | 4 µM | – | – | effect on number of objects ([2]; 48 h treatment): minimal effects; inhibition of cortical neurite outgrowth (total neurite length) [3]: inhibited cortical neurite outgrowth; AC50 [3, 11]: 3.1 µM
2 | 2 ,4 -DIHYDROXYCHALCONE | – | – | – | – | – | – | – | PAMPA-BBB Pe [10]: 222.92 10^-6 cm/sec; AC50 ([2]; Table S1, 48 hr, head prints no unit, µM per Table 1 and Fig. 5): 20.9 µM; AC50 ([3]; Table S1, total neurite length, 48 hr, head prints no unit, µM per Table 1 and Fig. 5, read-out: TNL AC50 (48 hr)): 16.9 µM
3 | CC(=O)O[C@H]1[C@H]2O[C@]23[C@@H]2CC[C@@H]4C[C@@H](O)CC[C@]4(C)[C@H]2CC[C@]3(C)[C@H]1c1ccc(=O)oc1 [Cinobufagin] | – | – | – | – | 0.093 µM | – | – | decrease in luminescence intensity of the brain tumor [5]: 70%; Papp [1]: 45.4 ×10⁻⁶ cm/s; AC50 ([3]; Homo sapiens, Neuron, 48 h, read-out: TNL AC50 (48 h)): 0.618 µM; AC50 ([3]; Homo sapiens, Neuron, read-out: AC50 (neurite outgrowth inhibition)): 0.6 µM
4 | C=CC[C@@H]1/C=C(\C)C[C@H](C)C[C@H](OC)[C@H]2O[C@@](O)(C(=O)C(=O)N3CCCC[C@H]3C(=O)O[C@H](/C(C)=C/[C@@H]3CC[C@@H](O)[C@H](OC)C3)[C@H](C)[C@@H](O)CC1=O)[C@H](C)C[C@@H]2OC [Tacrolimus, reference compound] | 154.13 10 × 10^− 6 cm/sec | 154 10^-6 cm/sec | 154 ×10⁻⁶ cm/s | 2.65 µM | 4.19 µM | 2.65 µM | 4.19 µM | –
5 | Cc1nccc2c1[nH]c1ccccc12 [Harmane] | – | – | – | 3.21 µM | 12.2 µM | 3.21 µM | – | PAMPA-BBB Pe (PAMPA): 59.65 10 × 10^− 6 cm/sec; Papp [1]: 59.6 ×10⁻⁶ cm/s
6 | COC(=O)[C@H]1[C@H]2C[C@@H]3c4[nH]c5ccccc5c4CCN3C[C@H]2C[C@@H](OC(=O)c2cc(OC)c(OC)c(OC)c2)[C@@H]1OC [Deserpidine, reference compound] | – | 42 10^-6 cm/sec | 42.1 ×10⁻⁶ cm/s | – | – | 11.3 µM | 16.6 µM | –
7 | O=c1cc(N2CCOCC2)oc2c(-c3cccc4c3sc3ccccc34)cccc12 [NU-7441, 8-(4-DIBENZOTHIENYL)-2-(4-MORPHOLINYL)-4H-1-BENZOPYRAN-4-ONE, reference compound] | 101.9 10 × 10^− 6 cm/sec | – | 102 ×10⁻⁶ cm/s | 2.85 µM | 7.6 µM | 2.85 µM | 7.6 µM | –
8 | C/C=C(\C)C(=O)N[C@@H](c1ccccc1)[C@@H](O)C(=O)O[C@H]1C[C@@]2(O)[C@@H](OC(=O)c3ccccc3)[C@@H]3[C@]4(OC(C)=O)CO[C@@H]4C[C@H](O)[C@@]3(C)C(=O)[C@H](OC(C)=O)C(=C1C)C2(C)C [Cephalomannine] | 78.57 10 × 10^− 6 cm/sec | 79 10^-6 cm/sec | 78.6 ×10⁻⁶ cm/s | 0.688 µM | – | – | – | Viability AC50 (48 h) ([2]; 48 h treatment): inactive; AC50 [3, 11]: 0.7 µM; cytotoxicity relative to taxol (less cytotoxic) [6]: ~ 35%
9 | CN1Cc2c(ccc3c2OCO3)[C@@H]2[C@H]1c1cc3c(cc1C[C@@H]2O)OCO3 [Chelidonine] | – | 75 10^-6 cm/sec | 75 ×10⁻⁶ cm/s | – | – | 7.54 µM | 5.8 µM | –
10 | COc1cc(O)c2c(c1)C1OC1C[C@H](O)[C@H](O)C(=O)C=CC[C@H](C)OC2=O (some centres unmarked) [NCGC00183677-03] | – | 69 10^-6 cm/sec | 69.3 ×10⁻⁶ cm/s | – | – | 35.9 µM | 28.2 µM | –
11 | COc1cc2c(c3oc4cccc(O)c4c(=O)c13)[C@@H]1C=CO[C@@H]1O2 [Sterigmatocystin] | – | – | – | – | – | – | – | adverse effects on offspring neurogenesis [7]: no adverse effects; PAMPA-BBB Pe (PAMPA): 221 10 × 10^− 6 cm/sec; Papp [1]: 221 ×10⁻⁶ cm/s; Viability AC50 (48 h) [2]: inactive; AC50 ([3]; read-out: AC50 (neurite outgrowth inhibition)): 2.3 µM; AC50 ([3]; read-out: TNL AC50 (48 h)): 2.32 µM; AC50 ([3]; read-out: TNL AC50 (48 hr)): 2.32 µM
12 | Cc1cc2c(C(C)C)c(O)c(O)c(C=O)c2c(O)c1-c1c(C)cc2c(C(C)C)c(O)c(O)c(C=O)c2c1O [Gossypol] | – | 393 10^-6 cm/sec | 393 ×10⁻⁶ cm/s | – | – | 7.6 µM | 6.91 µM | –
13 | CC1=CC(=O)c2c(O)cccc2C1=O [Plumbagin] | 68.8 10 × 10^− 6 cm/sec | 69 10^-6 cm/sec | 68.8 ×10⁻⁶ cm/s | 0.927 µM | 1.32 µM | – | – | effect on number of objects ([2]; 48 h treatment): minimal effects; inhibition of cortical neurite outgrowth (total neurite length) [3]: inhibited cortical neurite outgrowth; AC50 [3, 11]: 0.9 µM
14 | COc1ccc(/C=C\c2cc(OC)c(OC)c(OC)c2)cc1O [Combretastatin A4] | 315.59 10 × 10^− 6 cm/sec | 316 10^-6 cm/sec | 316 ×10⁻⁶ cm/s | 0.028 µM | 0.047 µM | 0.0277 µM | 0.047 µM | –
15 | COc1ccc2c(c[n+](C)c3c4cc5c(cc4ccc23)OCO5)c1OC [Chelerythrine chloride] | 94.67 10 × 10^− 6 cm/sec | – | 94.7 ×10⁻⁶ cm/s | 2.79 µM | 2.19 µM | 2.79 µM | 2.19 µM | –
16 | CN[C@@H]1C[C@H]2O[C@@](C)([C@@H]1OC)n1c3ccccc3c3c4c(c5c6ccccc6n2c5c31)C(=O)N[C@H]4O [7-hydroxystaurosporine (UCN-01), 7-hydroxystaurosporine] | – | 158 10^-6 cm/sec | 158 ×10⁻⁶ cm/s | – | – | 5.74 µM | 7.92 µM | –
17 | COc1cc2c(OC(C)=O)c3c(c(-c4ccc5c(c4)OCO5)c2cc1OC)C(=O)OC3 [NCGC00161918-01] | – | 349 10^-6 cm/sec | 349 ×10⁻⁶ cm/s | – | – | 3.1 µM | 9.92 µM | –
18 | COc1cc(/C=C/C(=O)N2CCC=CC2=O)cc(OC)c1OC [Piperlongumine] | 90.26 10 × 10^− 6 cm/sec | – | 90.3 ×10⁻⁶ cm/s | 3.74 µM | – | – | – | Papp [1, 9]: 90 ×10⁻⁶ cm/s; Viability AC50 (48 h) ([2]; 48 h treatment): Inactive
19 | O=c1cc(-c2ccc(O)c(O)c2)oc2ccccc12 [3',4'-DIHYDROXYFLAVONE] | – | 94 10^-6 cm/sec | 93.9 ×10⁻⁶ cm/s | – | – | 15.7 µM | 19.8 µM | –
20 | COc1ccc(-c2coc3c(O)c(O)c(OC)cc3c2=O)cc1 [NCGC00264029-02] | – | 40 10^-6 cm/sec | 40.1 ×10⁻⁶ cm/s | – | – | 30.1 µM | 25.6 µM | –
21 | COc1ccc2c(c1OC)C(=O)O[C@@H]2[C@H]1c2cc3c(cc2CCN1C)OCO3 [Hydrastine] | – | 57 10^-6 cm/sec | 57.4 ×10⁻⁶ cm/s | – | – | 26.1 µM | 22.8 µM | –
22 | CC1=C(O)C(=O)C=C2C1=CC=C1[C@@]2(C)CC[C@@]2(C)[C@@H]3C[C@](C)(C(=O)O)CC[C@]3(C)CC[C@]12C [Celastrol] | 142.58 10 × 10^− 6 cm/sec | – | 143 ×10⁻⁶ cm/s | 4.92 µM | 5.47 µM | 4.92 µM | 5.47 µM | Papp [1, 9]: 143 ×10⁻⁶ cm/s
23 | COc1cc(-c2cc(=O)c3c(O)cc(O)cc3o2)ccc1O [Chrysoeriol] | 178.56 10 × 10^− 6 cm/sec | – | 179 ×10⁻⁶ cm/s | 2.22 µM | – | – | – | Viability AC50 (48 h) ([2]; 48 h treatment): inactive; AC50 [3, 11]: 2.2 µM
24 | COc1ccc2c(c1OC)C(=O)O[C@@H]2[C@H]1c2c(cc3c(c2OC)OCO3)CCN1C [Noscapine, reference compound] | – | – | – | 1.06 µM | 11.6 µM | 1.06 µM | 11.6 µM | PAMPA-BBB Pe (PAMPA): 74.54 10 × 10^− 6 cm/sec; Papp [1]: 74.5 ×10⁻⁶ cm/s; AC50 [3, 11]: 1.1 µM
25 | COc1ccc(-c2cc(=O)c3ccccc3o2)cc1OC [3’,4’-dimethoxyflavone] | 249.21 10 × 10^− 6 cm/sec | 249 10^-6 cm/sec | 249 ×10⁻⁶ cm/s | 0.759 µM | – | – | – | Viability AC50 (48 h) ([2]; 48 h treatment): inactive; AC50 [3, 11]: 0.7 µM
26 | C/C(=C\c1csc(C)n1)[C@@H]1C[C@@H]2O[C@]2(C)CCC[C@H](C)[C@H](O)[C@@H](C)C(=O)C(C)(C)[C@@H](O)CC(=O)O1 [Patupilone] | 10.52 10 × 10^− 6 cm/sec | – | 10.5 ×10⁻⁶ cm/s | 0.007 µM | – | 0.0068 µM | – | Papp [1, 9]: 11 ×10⁻⁶ cm/s; Viability AC50 (48 h) ([2]; 48 h treatment): inactive
27 | COc1cc(C)ccc1O [Creosol] | – | – | – | – | – | – | 10.5 µM | PAMPA-BBB Pe (PAMPA): 115 10^-6 cm/sec; Papp [1]: 115 ×10⁻⁶ cm/s; AC50 ([3]; Homo sapiens, Neuron, 48 h, read-out: TNL AC50 (48 hr)): 15.3 µM
28 | CC[C@]1(O)C[C@H]2CN(CCc3c([nH]c4ccccc34)[C@@](C(=O)OC)(c3cc4c(cc3OC)N(C=O)[C@H]3[C@@](O)(C(=O)OC)[C@H](OC(C)=O)[C@]5(CC)C=CCN6CC[C@]43[C@@H]65)C2)C1 [Vincristine, reference compound] | – | – | – | – | – | – | – | PAMPA-BBB Pe (PAMPA): 21.19 10^-6 cm/sec; AC50 [2]: 37.2 µM; AC50 ([3]; read-out: TNL AC50 (48 hr)): 30.4 µM
29 | O=c1c(O)c(-c2ccccc2)oc2ccccc12 [3-Hydroxyflavone] | 181.17 10 × 10^− 6 cm/sec | – | 181 ×10⁻⁶ cm/s | 2.97 µM | 1.83 µM | – | – | –
